The compounds below were run on Mycobacterium tuberculosis (assay: Minimum inhibitory concentration against Mycobacterium tuberculosis var. bovis strain at 310K, with value expressed as pMIC i.e. -log of MIC (ug/mL).).
Type: functional

SMILES	pMIC
Cn1cncc1C(=O)NN	0.52
NNC(=O)c1ccnc(F)c1	3.4
Cc1cnccc1C(=O)NN	0.7
NNC(=O)c1ccncc1 [ISONIAZID]	4.2
CN(C)C(=O)N1CCC(C(=O)NN)CC1	0.22
NNC(=O)Cc1ccccc1	1.92
NNC(=O)c1ccc(O)cc1	1.92
Cc1ncc(C(=O)NN)c(O)n1	0.4
NNC(=O)c1cccnc1 [NICOTINIC ACID HYDRAZIDE]	2.7
NNC(=O)c1ccco1	4.22
NNC(=O)c1ccncc1N	2.82
NNC(=O)c1ccc([N+](=O)[O-])cc1	1.92
NNC(=O)c1cccc(N)c1	2.52
NNC(=O)c1ccccn1	3.82
NNC(=O)/C=C/c1ccccc1	3.4
NNC(=O)c1ccccc1N	1.52
NNC(=O)c1cnccn1 [PYRAZINE CARBOXYLIC ACID HYDRAZIDE]	2.82
NNC(=O)C1CCNCC1	0.22

SMILES	pMIC
NNC(=O)c1ccccc1 [BENZOIC ACID HYDRAZIDE]	3.22
NNC(=O)c1cncs1	2
COc1cc(C(=O)NN)ccc1O	1.52
NNC(=O)Cc1ccncc1	1
NNC(=O)c1cscn1	1.82
NNC(=O)Cc1ccc(Cl)cc1	2
NNC(=O)c1c[nH]cn1	2.7
NNC(=O)c1c[nH]c(S)n1	0.6
NNC(=O)c1ccc(Cl)cc1	2.52
NNC(=O)c1ccnc2ccccc12	1.1
NNC(=O)c1ccc(Br)cc1	1.92
NNC(=O)c1ccnc(Br)c1	1.82
NNC(=O)c1cccc([N+](=O)[O-])c1	3.22
CN1CCC(C(=O)NN)CC1	0.22
NNC(=O)c1ccncn1	1.7
NNC(=O)c1ccccc1[N+](=O)[O-]	0.52
NNC(=O)C1Cc2ccccc2O1 (stereo unspecified)	0.65
NNC(=O)C(O)c1ccccc1 (stereo unspecified)	1.4
